Source: PubChem BioAssay (NCI)
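All cell lines were grown in 96-well plates and treated with compound for 48 hours. GI50 marks 50% less growth. TGI is the concentration that stops growth completely.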

How the values were obtained:
Test in all cases: DTP human tumour cell line panel, 48 h
EKVX NSCLC = test system: EKVX NSCLC
HOP-62 NSCLC = test system: HOP-62 NSCLC
UO-31 renal = test system: UO-31 renal
SNB-75 CNS = test system: SNB-75 CNS
RXF 393 renal = test system: RXF 393 renal
U251 CNS = test system: U251 CNS
OVCAR-4 ovarian = test system: OVCAR-4 ovarian
NCI-H226 lung = test system: NCI-H226 lung
MDA-MB-435 = test system: MDA-MB-435
A498 renal = test system: A498 renal
SR leukemia = test system: SR leukemia
TK-10 renal = test system: TK-10 renal
NCI-H460 lung = test system: NCI-H460 lung
T-47D breast = test system: T-47D breast
SNB-19 CNS = test system: SNB-19 CNS
M14 melanoma = test system: M14 melanoma
UACC-62 melanoma = test system: UACC-62 melanoma
PC-3 prostate = test system: PC-3 prostate
NCI-H23 lung = test system: NCI-H23 lung
HT29 colon = test system: HT29 colon
HCC-2998 colon = test system: HCC-2998 colon
HCT-15 colon = test system: HCT-15 colon
MALME-3M melanoma = test system: MALME-3M melanoma
SF-539 CNS = test system: SF-539 CNS
UACC-257 melanoma = test system: UACC-257 melanoma
SK-MEL-5 melanoma = test system: SK-MEL-5 melanoma
CAKI-1 renal = test system: CAKI-1 renal
MDA-MB-231 breast = test system: MDA-MB-231 breast
KM12 colon = test system: KM12 colon
SW-620 colon = test system: SW-620 colon
MOLT-4 leukemia = test system: MOLT-4 leukemia
COLO 205 colon = test system: COLO 205 colon
OVCAR-5 ovarian = test system: OVCAR-5 ovarian
HL-60(TB) leukemia = test system: HL-60(TB) leukemia
SN12C renal = test system: SN12C renal
ACHN renal = test system: ACHN renal
OVCAR-8 ovarian = test system: OVCAR-8 ovarian
SK-MEL-28 melanoma = test system: SK-MEL-28 melanoma
HCT-116 colon = test system: HCT-116 colon
IGROV1 ovarian = test system: IGROV1 ovarian
SK-MEL-2 melanoma = test system: SK-MEL-2 melanoma
OVCAR-3 ovarian = test system: OVCAR-3 ovarian
LOX IMVI melanoma = test system: LOX IMVI melanoma
DU-145 prostate = test system: DU-145 prostate
K-562 leukemia = test system: K-562 leukemia
SF-268 CNS = test system: SF-268 CNS
CCRF-CEM leukemia = test system: CCRF-CEM leukemia
BT-549 breast = test system: BT-549 breast
NCI-H522 lung = test system: NCI-H522 lung
MCF7 breast = test system: MCF7 breast
786-0 renal = test system: 786-0 renal
SF-295 CNS = test system: SF-295 CNS
A549 NSCLC = test system: A549 NSCLC
RPMI-8226 leukemia = test system: RPMI-8226 leukemia
HOP-92 NSCLC = test system: HOP-92 NSCLC
NCI/ADR-RES ovarian = test system: NCI/ADR-RES ovarian
HS 578T breast = test system: HS 578T breast
SK-OV-3 ovarian = test system: SK-OV-3 ovarian

Which GI50 (EKVX NSCLC) does the source give for O=C1/C(=C/c2ccc(Cl)c(Cl)c2)CN(C(=O)CCN2CCC(=NO)CC2)C/C1=C\c1ccc(Cl)c(Cl)c1 here?
Its GI50 is 1.31 µM.

What about the TGI (EKVX NSCLC) of the same compound?
The TGI was 3.05 µM.

What about the GI50 (HOP-62 NSCLC) of the same compound?
Its GI50 is 1.26 µM.

And the TGI (HOP-62 NSCLC)?
The TGI was 3.11 µM.

What about the GI50 (UO-31 renal) of the same compound?
Its GI50 is 0.654 µM.

What about the TGI (UO-31 renal) of the same compound?
The TGI was 1.34 µM.

What about the GI50 (SNB-75 CNS) of the same compound?
The GI50 was 1.38 µM.

What about the TGI (SNB-75 CNS) of the same compound?
Its TGI is 3.17 µM.

And the GI50 (RXF 393 renal)?
The GI50 was 1.13 µM.

What about the TGI (RXF 393 renal) of the same compound?
Its TGI is 2.59 µM.

And the GI50 (U251 CNS)?
Its GI50 is 0.268 µM.

And the TGI (U251 CNS)?
Its TGI is 0.818 µM.

What about the GI50 (OVCAR-4 ovarian) of the same compound?
Its GI50 is 0.678 µM.

And the TGI (OVCAR-4 ovarian)?
The TGI was 1.96 µM.

What about the GI50 (NCI-H226 lung) of the same compound?
The GI50 was 1.26 µM.

What about the TGI (NCI-H226 lung) of the same compound?
Its TGI is 2.53 µM.

What about the GI50 (MDA-MB-435) of the same compound?
Its GI50 is 0.827 µM.

And the TGI (MDA-MB-435)?
The TGI was 2.12 µM.

What about the GI50 (A498 renal) of the same compound?
Its GI50 is 1.44 µM.

What about the TGI (A498 renal) of the same compound?
The TGI was 2.89 µM.

And the GI50 (SR leukemia)?
The GI50 was 0.353 µM.

And the TGI (SR leukemia)?
The TGI was > 100 µM.

What about the GI50 (TK-10 renal) of the same compound?
Its GI50 is 1.61 µM.

And the TGI (TK-10 renal)?
Its TGI is 3.18 µM.

And the GI50 (NCI-H460 lung)?
Its GI50 is 0.933 µM.

What about the TGI (NCI-H460 lung) of the same compound?
The TGI was 2.57 µM.

What about the GI50 (T-47D breast) of the same compound?
The GI50 was 1.1 µM.

And the TGI (T-47D breast)?
Its TGI is 3.59 µM.

What about the GI50 (SNB-19 CNS) of the same compound?
The GI50 was 0.599 µM.

What about the TGI (SNB-19 CNS) of the same compound?
Its TGI is 1.8 µM.

And the GI50 (M14 melanoma)?
The GI50 was 0.782 µM.

And the TGI (M14 melanoma)?
Its TGI is 2.23 µM.

What about the GI50 (UACC-62 melanoma) of the same compound?
The GI50 was 0.664 µM.

And the TGI (UACC-62 melanoma)?
Its TGI is 1.87 µM.

And the GI50 (PC-3 prostate)?
Its GI50 is 0.545 µM.

And the TGI (PC-3 prostate)?
Its TGI is 1.66 µM.

What about the GI50 (NCI-H23 lung) of the same compound?
The GI50 was 1.04 µM.

And the TGI (NCI-H23 lung)?
Its TGI is 3.01 µM.

What about the GI50 (HT29 colon) of the same compound?
Its GI50 is 0.328 µM.

And the TGI (HT29 colon)?
Its TGI is 1.25 µM.

And the GI50 (HCC-2998 colon)?
The GI50 was 0.807 µM.

And the TGI (HCC-2998 colon)?
The TGI was 2.11 µM.

And the GI50 (HCT-15 colon)?
Its GI50 is 0.325 µM.

What about the TGI (HCT-15 colon) of the same compound?
Its TGI is 1.16 µM.

And the GI50 (MALME-3M melanoma)?
The GI50 was 1.32 µM.

What about the TGI (MALME-3M melanoma) of the same compound?
The TGI was 2.78 µM.

What about the GI50 (SF-539 CNS) of the same compound?
The GI50 was 0.753 µM.

What about the TGI (SF-539 CNS) of the same compound?
Its TGI is 1.97 µM.

And the GI50 (UACC-257 melanoma)?
Its GI50 is 1.74 µM.

And the TGI (UACC-257 melanoma)?
Its TGI is 3.86 µM.

What about the GI50 (SK-MEL-5 melanoma) of the same compound?
Its GI50 is 1.58 µM.

And the TGI (SK-MEL-5 melanoma)?
The TGI was 3 µM.

What about the GI50 (CAKI-1 renal) of the same compound?
Its GI50 is 0.584 µM.

And the TGI (CAKI-1 renal)?
Its TGI is 1.78 µM.

What about the GI50 (MDA-MB-231 breast) of the same compound?
The GI50 was 0.616 µM.

What about the TGI (MDA-MB-231 breast) of the same compound?
The TGI was 1.85 µM.

And the GI50 (KM12 colon)?
Its GI50 is 0.368 µM.

What about the TGI (KM12 colon) of the same compound?
Its TGI is 1.14 µM.

What about the GI50 (SW-620 colon) of the same compound?
The GI50 was 0.247 µM.

What about the TGI (SW-620 colon) of the same compound?
The TGI was 0.708 µM.

And the GI50 (MOLT-4 leukemia)?
The GI50 was 0.458 µM.

What about the TGI (MOLT-4 leukemia) of the same compound?
The TGI was 2.26 µM.

And the GI50 (COLO 205 colon)?
The GI50 was 0.391 µM.

What about the TGI (COLO 205 colon) of the same compound?
The TGI was 1.54 µM.

And the GI50 (OVCAR-5 ovarian)?
Its GI50 is 1.13 µM.

What about the TGI (OVCAR-5 ovarian) of the same compound?
The TGI was 2.74 µM.

And the GI50 (HL-60(TB) leukemia)?
Its GI50 is 1.48 µM.

What about the TGI (HL-60(TB) leukemia) of the same compound?
The TGI was 4.37 µM.

What about the GI50 (SN12C renal) of the same compound?
Its GI50 is 0.597 µM.

What about the TGI (SN12C renal) of the same compound?
The TGI was 1.73 µM.

What about the GI50 (ACHN renal) of the same compound?
Its GI50 is 0.641 µM.

And the TGI (ACHN renal)?
Its TGI is 1.62 µM.

And the GI50 (OVCAR-8 ovarian)?
The GI50 was 0.651 µM.

What about the TGI (OVCAR-8 ovarian) of the same compound?
Its TGI is 2.62 µM.

And the GI50 (SK-MEL-28 melanoma)?
Its GI50 is 1.64 µM.

What about the TGI (SK-MEL-28 melanoma) of the same compound?
Its TGI is 3.07 µM.

What about the GI50 (HCT-116 colon) of the same compound?
The GI50 was 0.267 µM.

And the TGI (HCT-116 colon)?
Its TGI is 0.778 µM.

And the GI50 (IGROV1 ovarian)?
Its GI50 is 0.534 µM.

What about the TGI (IGROV1 ovarian) of the same compound?
The TGI was 1.41 µM.

And the GI50 (SK-MEL-2 melanoma)?
Its GI50 is 2.05 µM.

And the TGI (SK-MEL-2 melanoma)?
The TGI was 4.3 µM.

And the GI50 (OVCAR-3 ovarian)?
The GI50 was 0.574 µM.

And the TGI (OVCAR-3 ovarian)?
The TGI was 1.64 µM.

And the GI50 (LOX IMVI melanoma)?
The GI50 was 0.256 µM.

And the TGI (LOX IMVI melanoma)?
The TGI was 0.612 µM.

And the GI50 (DU-145 prostate)?
Its GI50 is 1.21 µM.

And the TGI (DU-145 prostate)?
The TGI was 2.73 µM.

What about the GI50 (K-562 leukemia) of the same compound?
The GI50 was 0.191 µM.

What about the GI50 (SF-268 CNS) of the same compound?
Its GI50 is 1.06 µM.

And the TGI (SF-268 CNS)?
Its TGI is 2.88 µM.

And the GI50 (CCRF-CEM leukemia)?
The GI50 was 0.292 µM.

And the TGI (CCRF-CEM leukemia)?
Its TGI is 1.73 µM.

And the GI50 (BT-549 breast)?
The GI50 was 0.829 µM.

And the TGI (BT-549 breast)?
Its TGI is 1.84 µM.

And the GI50 (NCI-H522 lung)?
Its GI50 is 0.369 µM.

What about the TGI (NCI-H522 lung) of the same compound?
The TGI was 1.59 µM.

And the GI50 (MCF7 breast)?
The GI50 was 0.333 µM.

What about the TGI (MCF7 breast) of the same compound?
The TGI was 1.74 µM.

What about the GI50 (786-0 renal) of the same compound?
Its GI50 is 0.609 µM.

And the TGI (786-0 renal)?
Its TGI is 1.45 µM.

And the GI50 (SF-295 CNS)?
Its GI50 is 1.05 µM.

And the TGI (SF-295 CNS)?
Its TGI is 2.59 µM.

And the GI50 (A549 NSCLC)?
The GI50 was 2.15 µM.

What about the TGI (A549 NSCLC) of the same compound?
Its TGI is 6.47 µM.

What about the GI50 (RPMI-8226 leukemia) of the same compound?
Its GI50 is 0.253 µM.

What about the TGI (RPMI-8226 leukemia) of the same compound?
The TGI was 0.84 µM.

And the GI50 (HOP-92 NSCLC)?
The GI50 was 1.56 µM.

What about the TGI (HOP-92 NSCLC) of the same compound?
Its TGI is 3.82 µM.

What about the GI50 (NCI/ADR-RES ovarian) of the same compound?
Its GI50 is 1.02 µM.

And the TGI (NCI/ADR-RES ovarian)?
The TGI was 4.04 µM.

And the GI50 (HS 578T breast)?
Its GI50 is 1.43 µM.

And the TGI (HS 578T breast)?
Its TGI is 5.68 µM.

And the GI50 (SK-OV-3 ovarian)?
The GI50 was 1.85 µM.

And the TGI (SK-OV-3 ovarian)?
The TGI was 3.48 µM.
